Results on 24 molecules are retold here after patent US8648081B2 (Eli Lilly and Company, priority 2011, dated 2014).

Like-named read-outs stand apart in the source and are kept apart here.

The assay deals with Lone star tick larvae (Amblyomma americanum). Nature of the assay: In Vitro Larval Immersion Microassay (LIM). Particulars: read-out: % Efficacy (percent larval mortality). How it is done: In Vitro Larval Immersion Microassay (LIM)
The larval immersion microassay may be conducted as described in White, et al., J. Med. Entomol. […] Briefly, experimental test articles are formulated in dimethylsulfoxide (DMSO) to prepare a stock solution at a concentration of 10 mM. […] Approximately 30-50 Lone star tick larvae (Amblyomma americanum) are submerged into each well containing experimental test articles. After a 30 minute immersion period, larvae are removed with a wide-bore pipette tip in 0.05 ml of fluid, dispensed into a commercial paper tissue biopsy bag which is sealed at the top with a plastic dialysis clip, inverted and allowed to air dry for 60 minutes. Bags containing larvae are then incubated at approximately 27 degrees Celsius and >90% relative humidity. After 24 hours, bags are opened, live and dead larvae are counted and percent larval mortality is calculated as follows: % Efficacy=(# dead larvae)/(# total larvae)×100.

As to `O=C(CNC(=O)c1sc(C2=NOC(c3cc(Cl)c(Cl)c(Cl)c3)(C(F)(F)F)C2)c2c1CCC2)NCC(F)(F)F` (stereo not drawn) [Example 52, N-(2-oxo-2-(2,2,2-trifluoroethylamino)ethyl)-3-(5-(3,4,5-trichlorophenyl)-5-(trifluoromethyl)-4,5-dihydroisoxazol-3-yl)-5,6-dihydro-4H-cyclopenta[c] thiophene-1-carboxamide], the mortality at 300 µM was ≥ 80%. Still for that read-out and setting: the result for `O=C(N[C@@H]1CCNC1=O)c1sc(C2=NOC(c3cc(Cl)c(Cl)c(Cl)c3)(C(F)(F)F)C2)c2c1CCC2` (stereo partly drawn) [Example 53, N-((R)-2-oxopyrrolidin-3-yl)-3-(5-(3,4,5-trichlorophenyl)-5-(trifluoromethyl)-4,5-dihydroisoxazol-3-yl)-5,6-dihydro-4H-cyclopenta[c] thiophene-1-carboxamide] reads ≥ 80%; that for `N#CCNC(=O)CNC(=O)c1sc(C2=NOC(c3cc(Cl)c(Cl)c(Cl)c3)(C(F)(F)F)C2)c2c1CCC2` (stereo not drawn) [Example 54, N-(2-(cyanomethyl-amino)-2-oxoethyl)-3-(5-(3,4,5-trichloro-phenyl)-5-(trifluoro-methyl)-4,5-dihydro-isoxazol-3-yl)-5,6-dihydro-4H-cyclo-penta[c]thiophene-1-carboxamide], ≥ 80%; that for `C#CCNC(=O)CNC(=O)c1sc(C2=NOC(c3cc(Cl)c(Cl)c(Cl)c3)(C(F)(F)F)C2)c2c1CCC2` (stereo not drawn) [Example 55, N-(2-oxo-2-(prop-2-ynylamino)ethyl)-3-(5-(3,4,5-trichlorophenyl)-5-(trifluoromethyl)-4,5-dihydroisoxazol-3-yl)-5,6-dihydro-4H-cyclo-penta[c]thiophene-l-carboxamide], ≥ 80%. Take `O=C(NC1CCN(CC(F)(F)F)C1=O)c1sc(C2=NOC(c3cc(Cl)c(Cl)c(Cl)c3)(C(F)(F)F)C2)c2c1CCC2` (stereo not drawn) [Example 56, N-(2-oxo-1-(2,2,2-trifluoroethyl)pyrrolidin-3-yl)-3-(5-(3,4,5-trichlorophenyl)-5-(trifluoromethyl)-4,5-dihydroisoxazol-3-yl)-5,6-dihydro-4H-cyclopenta[c] thiophene-1-carboxamide]: the mortality at 300 µM is ≥ 80%. With `O=C(CNC(=O)c1sc(C2=NOC(c3cc(Cl)c(F)c(Cl)c3)(C(F)(F)F)C2)c2c1CCC2)NCC(F)(F)F` (stereo not drawn) [Example 57, 3-(5-(3,5-dichloro-4-fluorophenyl)-5-(trifluoromethyl)-4,5-dihydroisoxazol-3-yl)-N-(2-oxo-2-(2,2,2-trifluoroethylamino)ethyl)-5,6-dihydro-4H-cyclopenta[c] thiophene-1-carboxamide], the mortality at 300 µM is ≥ 80%.

Consider `O=C(N[C@@H]1CCNC1=O)c1sc(C2=NOC(c3cc(Cl)c(F)c(Cl)c3)(C(F)(F)F)C2)c2c1CCC2` (stereo partly drawn) [Example 58, 3-(5-(3,5-dichloro-4-fluorophenyl)-5-(trifluoromethyl)-4,5-dihydroisoxazol-3-yl)-N-((R)-2-oxopyrrolidin-3-yl)-5,6-dihydro-4H-cyclopenta[c] thiophene-1-carboxamide], for which the mortality at 300 µM was ≥ 80%.

Take `N#CCNC(=O)CNC(=O)c1sc(C2=NOC(c3cc(Cl)c(F)c(Cl)c3)(C(F)(F)F)C2)c2c1CCC2` (stereo not drawn) [Example 59, N-(2-(cyanomethyl-amino)-2-oxoethyl)-3-(5-(3,5-dichloro-4-fluorophenyl)-5-(trifluoromethyl)-4,5-dihydroisoxazol-3-yl)-5,6-dihydro-4H-cyclopenta[c] thiophene-1-carboxamide]: the mortality at 300 µM was ≥ 80%. On the same count and under the same terms, the result for `O=C(NC1CCN(CC(F)(F)F)C1=O)c1sc(C2=NOC(c3cc(Cl)c(F)c(Cl)c3)(C(F)(F)F)C2)c2c1CCC2` (stereo not drawn) [Example 60, 3-(5-(3,5-dichloro-4-fluorophenyl)-5-(trifluoromethyl)-4,5-dihydroisoxazol-3-yl)-N-(2-oxo-1-(2,2,2-trifluoroethyl)pyrrolidin-3-yl)-5,6-dihydro-4H-cyclopenta[c] thiophene-1-carboxamide] reads ≥ 80%; that for `C#CCNC(=O)CNC(=O)c1sc(C2=NOC(c3cc(Cl)c(F)c(Cl)c3)(C(F)(F)F)C2)c2c1CCC2` (stereo not drawn) [Example 61, 3-(5-(3,5-dichloro-4-fluorophenyl)-5-(trifluoromethyl)-4,5-dihydroisoxazol-3-yl)-N-(2-oxo-2-(prop-2-ynylamino)ethyl)-5,6-dihydro-4H-cyclopenta[c] thiophene-1-carboxamide], ≥ 80%; that for `O=C(CNC(=O)c1sc(C2=NOC(c3cc(Cl)cc(Cl)c3)(C(F)(F)F)C2)c2c1CCCC2)NCC(F)(F)F` (stereo not drawn) [Example 62, 3-(5-(3,5-dichloro-phenyl)-5-(trifluoro-methyl)-4,5-dihydro-isoxazol-3-yl)-N-(2-oxo-2-(2,2,2-trifluoroethylamino)ethyl)-4,5,6,7-tetrahydrobenzo[c] thiophene-1-carboxamide], ≥ 80%. On to `CCNC(=O)CNC(=O)c1sc(C2=NOC(c3cc(Cl)cc(Cl)c3)(C(F)(F)F)C2)c2c1CCCC2` (stereo not drawn) [Example 63, 3-(5-(3,5-dichloro-phenyl)-5-(trifluoro-methyl)-4,5-dihydro-isoxazol-3-yl)-N-(2-(ethylamino)-2-oxoethyl)-4,5,6,7-tetrahydrobenzo [c]thiophene-1-carboxamide], for which the mortality at 300 µM is ≥ 80%.

As to `O=C(NCC1CCCO1)c1sc(C2=NOC(c3cc(Cl)cc(Cl)c3)(C(F)(F)F)C2)c2c1CCCC2` (stereo not drawn) [Example 64, 3-(5-(3,5-dichloro-phenyl)-5-(trifluoro-methyl)-4,5-dihydro-isoxazol-3-yl)-N-((tetrahydrofuran-2-yl)methyl)-4,5,6,7-tetrahydro-benzo[c]thiophene-1-carboxamide], the mortality at 300 µM was ≥ 80%. In the case of `CSCCNC(=O)c1sc(C2=NOC(c3cc(Cl)cc(Cl)c3)(C(F)(F)F)C2)c2c1CCCC2` (stereo not drawn) [Example 65, 3-(5-(3,5-dichloro-phenyl)-5-(trifluoro-methyl)-4,5-dihydro-isoxazol-3-yl)-N-(2-(methylthio)ethyl)-4,5,6,7-tetra-hydrobenzo[c] thiophene-1-carboxamide], the mortality at 300 µM was ≥ 80%.

Consider `O=C(NCCC(F)(F)F)c1sc(C2=NOC(c3cc(Cl)cc(Cl)c3)(C(F)(F)F)C2)c2c1CCCC2` (stereo not drawn) [Example 66, 3-(5-(3,5-dichloro-phenyl)-5-(trifluoro-methyl)-4,5-dihydro-isoxazol-3-yl)-N-(3,3,3-trifluoropropyl)-4,5,6,7-tetrahydrobenzo[c] thiophene-1-carboxamide], for which the mortality at 300 µM is ≥ 80%. Turning to `O=C(NC1CCCC(O)C1)c1sc(C2=NOC(c3cc(Cl)cc(Cl)c3)(C(F)(F)F)C2)c2c1CCCC2` (stereo not drawn) [Example 67, 3-(5-(3,5-dichloro-phenyl)-5-(trifluoro-methyl)-4,5-dihydro-isoxazol-3-yl)-N-(3-hydroxycyclohexyl)-4,5,6,7-tetrahydrobenzo [c]thiophene-1-carboxamide], the mortality at 300 µM is ≥ 80%. The same measure, in the same setting: to `O=C(Nc1ccc(F)cn1)c1sc(C2=NOC(c3cc(Cl)cc(Cl)c3)(C(F)(F)F)C2)c2c1CCCC2` (stereo not drawn) [Example 68, 3-(5-(3,5-dichloro-phenyl)-5-(trifluoro-methyl)-4,5-dihydro-isoxazol-3-yl)-N-(5-fluoropyridin-2-yl)-4,5,6,7-tetrahydro-benzo[c]thiophene-1-carboxamide] belongs ≥ 80%. Take `O=C(NC1CCCOC1)c1sc(C2=NOC(c3cc(Cl)cc(Cl)c3)(C(F)(F)F)C2)c2c1CCCC2` (stereo not drawn) [Example 69]: the mortality at 300 µM was ≥ 80%.

In the case of `O=C(NC1CSC1)c1sc(C2=NOC(c3cc(Cl)cc(Cl)c3)(C(F)(F)F)C2)c2c1CCCC2` (stereo not drawn) [Example 70, 3-(5-(3,5-dichloro-phenyl)-5-(trifluoro-methyl)-4,5-dihydro-isoxazol-3-yl)-N-(thietan-3-yl)-4,5,6,7-tetrahydrobenzo[c] thiophene-1-carboxamide], the mortality at 300 µM is ≥ 80%. Consider `O=C(NC1CCOCC1)c1sc(C2=NOC(c3cc(Cl)cc(Cl)c3)(C(F)(F)F)C2)c2c1CCCC2` (stereo not drawn) [Example 71, 3-(5-(3,5-dichloro-phenyl)-5-(trifluoro-methyl)-4,5-dihydro-isoxazol-3-yl)-N-(tetrahydro-2H-pyran-4-yl)-4,5,6,7-tetrahydrobenzo [c]thiophene-1-carboxamide], for which the mortality at 300 µM is ≥ 80%.

For `O=C(NC1CCN(C2CC2)C1=O)c1sc(C2=NOC(c3cc(Cl)cc(Cl)c3)(C(F)(F)F)C2)c2c1CCCC2` (stereo not drawn) [Example 72], the mortality at 300 µM is ≥ 80%. Turning to `C#CCNC(=O)CNC(=O)c1sc(C2=NOC(c3sc(Cl)c(Cl)c3Cl)(C(F)(F)F)C2)c2c1CCCC2` (stereo not drawn) [Example 74, N-(2-oxo-2-(prop-2-ynylamino)ethyl)-3-(5-(3,4,5-trichloro-thiophen-2-yl)-5-(trifluoromethyl)-4,5-dihydroisoxazol-3-yl)-4,5,6,7-tetrahydro-benzo[c]thiophene-1-carboxamide], the mortality at 300 µM (tested at 300 micromolar, 30 minute immersion, mortality counted after 24 hours) was ≥ 80%. Turning to `O=C(NC1CCS(=O)(=O)CC1)c1sc(C2=NOC(c3cc(Cl)c(Cl)c(Cl)c3)(C(F)(F)F)C2)c2c1CCCC2` (stereo not drawn) [Example 75, 3-[5-(3,4,5-Trichloro-phenyl)-5-trifluoro-methyl-4,5-dihydro-isoxazol-3-yl]-4,5,6,7-tetrahydro-benzo[c]thiophene-1-carboxylic acid (1,1-dioxo-hexahydro-thiopyran-4-yl)-amide], the mortality at 300 µM was ≥ 80%. As for `O=C(NC1CCN(CC(F)(F)F)C1=O)c1sc(C2=NOC(c3cc(Cl)c(Cl)c(Cl)c3)(C(F)(F)F)C2)c2c1CCCC2` (stereo not drawn) [Example 76, N-(2-oxo-1-(2,2,2-trifluoroethyl)pyrrolidin-3-yl)-3-(5-(3,4,5-trichloro-phenyl)-5-(trifluoro-methyl)-4,5-dihydro-isoxazol-3-yl)-4,5,6,7-tetrahydro-benzo[c]thiophene-1-carboxamide], the mortality at 300 µM is ≥ 80%.
